According to patent US5658908A (priority 1992, dated 1997):
“Also recorded” adds a separate entry of the source. Where two headings read alike, the source gives them in different places.

Assays:
mouse vas deferens = target: T1, mouse vas deferens (Mus musculus, UniProt P32300); assay: cell-based; format: cell-based
T1 construct: Vasa deferentia were removed from mice; from tissue; host or cells: mouse vas deferens

guinea pig ileum = assay: Inhibition of electrically stimulated contraction of guinea pig ileum; format: cell-based; settings: Cavia porcellus, mean of (n) experiments, read-out: Guinea Pig lleum ED50
Delta Receptor [1] = target: T2, Delta Receptor (Rattus norvegicus, UniProt P33533); assay: Delta receptor binding, rat brain membranes; set-up: species or system rat (Sprague-Dawley)
T2 construct: Rat (Sprague-Dawley) brain membranes were prepared; from tissue; host or cells: rat (Sprague-Dawley) brain membranes
T2 sequence (P33533 whole entry): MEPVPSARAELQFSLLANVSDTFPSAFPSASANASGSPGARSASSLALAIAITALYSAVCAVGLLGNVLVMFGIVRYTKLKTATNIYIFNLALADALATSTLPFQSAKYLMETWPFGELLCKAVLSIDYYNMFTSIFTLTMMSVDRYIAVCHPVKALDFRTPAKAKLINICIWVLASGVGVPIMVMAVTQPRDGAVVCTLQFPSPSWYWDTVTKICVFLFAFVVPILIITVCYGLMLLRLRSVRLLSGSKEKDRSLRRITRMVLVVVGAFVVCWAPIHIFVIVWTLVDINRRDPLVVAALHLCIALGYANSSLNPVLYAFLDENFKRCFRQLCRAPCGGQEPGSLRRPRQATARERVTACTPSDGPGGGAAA

Mu Receptor [2] = target: T3, Mu Receptor (Rattus norvegicus, UniProt P33535); assay: Mu receptor binding, rat brain membranes; set-up: species or system rat (Sprague-Dawley)
T3 construct: Rat (Sprague-Dawley) brain membranes were prepared; from tissue; host or cells: rat (Sprague-Dawley) brain membranes
T3 sequence (P33535 whole entry): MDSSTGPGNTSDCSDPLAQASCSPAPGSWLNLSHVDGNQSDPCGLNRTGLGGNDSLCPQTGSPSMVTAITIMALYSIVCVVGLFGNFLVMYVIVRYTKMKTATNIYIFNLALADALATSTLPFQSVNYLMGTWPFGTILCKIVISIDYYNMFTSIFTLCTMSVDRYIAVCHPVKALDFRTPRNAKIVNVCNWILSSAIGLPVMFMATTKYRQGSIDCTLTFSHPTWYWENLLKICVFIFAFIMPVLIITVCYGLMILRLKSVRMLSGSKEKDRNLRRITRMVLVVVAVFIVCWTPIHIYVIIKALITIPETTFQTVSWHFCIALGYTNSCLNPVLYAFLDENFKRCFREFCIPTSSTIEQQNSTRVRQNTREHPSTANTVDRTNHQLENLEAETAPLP

delta-opioid receptor = assay: Tail flick test, injection into brain (icv); format: in vivo; settings: mice
delta receptor [3] = target: delta receptor (Mus musculus, UniProt P32300); assay: Delta opioid receptor agonist activity; settings: in words
Sequence of delta receptor (P32300 whole entry): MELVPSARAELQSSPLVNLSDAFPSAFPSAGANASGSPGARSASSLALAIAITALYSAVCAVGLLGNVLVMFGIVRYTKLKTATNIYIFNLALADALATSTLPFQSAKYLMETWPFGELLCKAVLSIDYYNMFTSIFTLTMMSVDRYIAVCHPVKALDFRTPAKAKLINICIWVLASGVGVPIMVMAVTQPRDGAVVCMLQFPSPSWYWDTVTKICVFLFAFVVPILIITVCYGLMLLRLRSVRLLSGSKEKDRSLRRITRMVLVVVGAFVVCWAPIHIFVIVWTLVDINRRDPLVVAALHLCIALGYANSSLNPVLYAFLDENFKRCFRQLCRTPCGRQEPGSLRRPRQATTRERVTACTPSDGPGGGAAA

mu receptor [4] = assay: Mu opioid receptor agonist activity; settings: in words
[5] = Analgesia (test not described); format: in vivo; settings: in words
[6] = test system: mu and delta opioid receptors; assay: Rodent tests of analgesia, muscle rigidity, respiratory depression and proconvulsant activity
[7] = 125I-[D-Ala2,D-Leu5]enkephalin 0.24 nM with mu-agonist morphiceptin analog, 24° C., 60 min, mean of (n) experiments, read-out: Delta Receptor IC50
[8] = 125I-[D-Ala2,N-MePhe4,Met(O)ol5]enkephalin 0.1 nM, 24° C., 60 min, mean of (n) experiments, read-out: Mu Receptor IC50
[9] = electrically stimulated, 37° C., mean of (n) experiments, read-out: Mouse Vas Deferens ED50

T1 sequence (P32300 whole entry): as above

C=CCN1C[C@H](C)N(C(c2ccc(C(=O)N(CC)CC)cc2)c2cccc(NC=O)c2)C[C@H]1C (mixture of isomers) [Example 36, (±)-trans-4-(α-(4-allyl-2,5-dimethyl-1-piperazinyl)-3-formamidobenzyl)-N,N -diethylbenzamide]
IC50 (mouse vas deferens): 0.002 µM | IC50 (guinea pig ileum): 1.3 µM | IC50 (Delta Receptor [1]; [7]): 0.0091 µM | IC50 (Mu Receptor [2]; [8]): 0.26 µM

CCN(CC)C(=O)c1ccc(C(C2=C(C)CN(C)C(C)C2)c2cccc(O)c2)cc1 (racemic) [Example 51, (±)-(R*, R*) or (R*, S*)-N,N-diethyl-4-(3-hydroxy-α-(1,2,5,6-tetrahydro-1,3,6-trimethyl-4-pyridyl)benzyl)benzamide]
IC50 (mouse vas deferens; [9]): 0.052 µM | IC50 (guinea pig ileum): 3 µM | IC50 (Delta Receptor [1]; [7]): 0.0025 µM | IC50 (Mu Receptor [2]; [8]): 0.13 µM

CCN(CC)C(=O)c1ccc(C(c2cccc(O)c2)N2C[C@@H](C)N(C)[C@@H](C)C2)cc1 (relative stereo) [Compound E]
agonist activity in the mouse vas deferens (mouse vas deferens; in words): inactive as an agonist | antagonist activity in the mouse vas deferens (mouse vas deferens; in words): may be a weak antagonist | analgesic activity in the tail flick test (delta-opioid receptor): provide analgesic activity | reversal of analgesia by injection of naloxone or delta-specific antagonists (ICI 174,864 or naltrindole) (delta-opioid receptor): reversible

C=CCN1C[C@H](C)N([C@H](c2ccc(C(=O)NCC(=O)NCC(=O)O)cc2)c2cccc(O)c2)C[C@H]1C (relative stereo) [Compound H]
delta receptor agonist activity (delta receptor [3]): delta receptor agonist activity

C=CCN1C[C@H](C)N([C@@H](c2ccccc2)c2cccc(O)c2)C[C@H]1C (relative stereo) [Compound I]
mu receptor agonist activity (mu receptor [4]): significant agonist activity | delta receptor agonist activity (delta receptor [3]): delta-receptor opiate properties | analgesic activity [5]: strong analgesics

C=CCN1C[C@H](C)N([C@H](c2ccc(C(=O)N(CC)CCO)cc2)c2cccc(O)c2)C[C@H]1C (relative stereo) [Compound J]
delta receptor agonist activity (delta receptor [3]): potent delta receptor agonist activity

C=CCN1C[C@H](C)N([C@H](c2ccc(C(=O)N(CC)CC)cc2)c2cccc(O)c2)C[C@H]1C (relative stereo) [Example 6, (±)-4-((αR*)-α-((2S*,5R*)-4-Allyl-2,5-dimethyl-1-piperazinyl)-3-hydroxybenzyl)-N,N-diethylbenzamide]
IC50 (mouse vas deferens): 0.0002 µM | IC50 (guinea pig ileum): 0.143 µM | IC50 (Delta Receptor [1]; [7]): 0.0018 µM

C=CCN1C[C@@H](C)N([C@H](c2ccccc2)c2cccc(O)c2)C[C@@H]1C (relative stereo) [Example 9, (±)-3-((αR*)-α-((2R*,5S*)-4-Allyl-2,5-dimethyl-1-piperazinyl)benzyl)phenol]
IC50 (mouse vas deferens): 0.04 µM | IC50 (guinea pig ileum): 0.004 µM | IC50 (Delta Receptor [1]; [7]): 0.016 µM | IC50 (Mu Receptor [2]; [8]): 0.0011 µM

C/C=C\CN1[C@H](C)CN(C(c2ccc(C(=O)N(CC)CC)cc2)c2cccc(O)c2)C[C@@H]1C (relative stereo) [Example 11, cis-4-(α-(4-((Z)-2-Butenyl)-3,5-dimethyl-1-piperazinyl)-3-hydroxybenzyl)-N,N-diethylbenzamide]
IC50 (mouse vas deferens): > 10 µM | IC50 (guinea pig ileum): 3.6 µM | IC50 (Mu Receptor [2]; [8]): 0.6 µM

CCN(CC)C(=O)c1ccc([C@H](c2cccc(O)c2)N2C[C@H](C)NC[C@H]2C)cc1 (relative stereo) [Example 15, (±)-4-((αR*)-α-((2R*,5S*)-2,5-Dimethyl-1-piperazinyl)-3-hydroxybenzyl)-N,N-diethylbenzamide]
IC50 (mouse vas deferens): 4.4 µM | IC50 (guinea pig ileum): 2.7 µM | IC50 (Mu Receptor [2]; [8]): 0.12 µM

C=CCN1C[C@H](C)N([C@H](c2ccc(C(=O)NCC(=O)NCC(=O)O)cc2)c2cccc(O)c2)C[C@H]1C (relative stereo) [Example 25, (±)-N-(4-((αR*)-α-((2S*,5R*)-4-Allyl-2,5-dimethyl-1-piperazinyl)-3-hydroxybenzyl)benzoyl)glycylglycine]
IC50 (mouse vas deferens): 0.002 µM | IC50 (guinea pig ileum): 0.3 µM | IC50 (Delta Receptor [1]; [7]): 0.0004 µM | IC50 (Mu Receptor [2]; [8]): 0.07 µM

CCN(CC)C(=O)c1ccc(C(c2cccc(O)c2)N2C[C@@H](C)N(C)[C@@H](C)C2)cc1 (relative stereo) [Example 34, N,N-Diethyl-4-(3-hydroxy-α-(cis-3,4,5-trimethyl-1-piperazinyl)benzyl)benzamide]
IC50 (mouse vas deferens): > 10 µM | IC50 (guinea pig ileum): 3.7 µM | IC50 (Delta Receptor [1]; [7]): 0.004 µM | IC50 (Mu Receptor [2]; [8]): > 10 µM

C=CCN1C[C@H](C)N([C@H](c2ccc(C(=O)NCCOCCOCCNC(=O)c3ccc([C@H](c4cccc(O)c4)N4C[C@@H](C)N(CC=C)C[C@@H]4C)cc3)cc2)c2cccc(O)c2)C[C@H]1C (relative stereo) [Example 41, N,N'-((Ethylenedioxy)diethylene)bis(4-((R*)-α-((2S*,5R*)-4-allyl-2,5-dimethyl-1-piperazinyl)-3-hydroxybenzyl)benzamide)]
IC50 (mouse vas deferens; [9]): 0.013 µM | IC50 (guinea pig ileum): 0.0065 µM | IC50 (Delta Receptor [1]; [7]): 0.01 µM | IC50 (Mu Receptor [2]; [8]): 0.004 µM

C=CCN1C[C@H](C)N([C@H](c2cccc(O)c2)c2cccs2)C[C@H]1C (relative stereo) [Example 44, (±)-3-((R*)-((2S*,5R*)-4-Allyl-2,5-dimethyl-1-piperazinyl)(2-thienyl)methyl)phenol]
IC50 (mouse vas deferens): 0.037 µM | IC50 (Delta Receptor [1]; [7]): 0.011 µM | IC50 (Mu Receptor [2]; [8]): 0.0008 µM

C=CCN1C[C@H](C)N([C@H](c2ccc(S(C)(=O)=O)cc2)c2cccc(O)c2)C[C@H]1C (relative stereo) [Example 54, (±)-3-((αR*)-α-((2S*,5R*)-4-allyl-2,5-dimethyl-1-piperazinyl)-4-(methylsulfonyl)benzyl)phenol]
IC50 (mouse vas deferens): 0.042 µM | IC50 (guinea pig ileum): 5.6 µM | IC50 (Delta Receptor [1]; [7]): 0.0013 µM | IC50 (Mu Receptor [2]; [8]): 0.04 µM

C=CCN1C[C@H](C)N([C@H](c2ccc(S(=O)(=O)N(CC)CC)cc2)c2cccc(O)c2)C[C@H]1C (relative stereo) [Example 59, (±)-4-((αR*)-α-((2S*,5R*)-4-Allyl-2,5-dimethyl-1-piperazinyl)-3-hydroxybenzyl)-N,N-diethylbenzenesulfonamide]
IC50 (mouse vas deferens): 0.0026 µM | IC50 (guinea pig ileum): 1.8 µM | IC50 (Delta Receptor [1]; [7]): 0.02 µM | IC50 (Mu Receptor [2]; [8]): 0.1 µM

C=CCN1C[C@H](C)N([C@H](c2ccc(C(=O)N(CC)CCO)cc2)c2cccc(O)c2)C[C@H]1C (relative stereo) [Example 60, (±)-4-((αR*))-α-((2S*,5R*)-4-Allyl-2,5-dimethyl-1-piperazinyl)-3-hydroxy-benzyl)-N-ethyl-N-(2-hydroxyethyl)benzamide]
IC50 (mouse vas deferens): 0.0003 µM | IC50 (guinea pig ileum): 0.086 µM | IC50 (Delta Receptor [1]; [7]): 0.0065 µM | IC50 (Mu Receptor [2]; [8]): 0.02 µM

C=CCN1C[C@H](C)N([C@@H](c2cccc(O)c2)c2cccc(C(=O)N(CC)CC)c2)C[C@H]1C (relative stereo) [Example 84, (±)-3-((αR*)-α-((2S*,5R*)-4-allyl-2,5-dimethyl-1-piperazinyl)-3-hydroxybenzyl)-N,N-diethylbenzamide]
IC50 (mouse vas deferens): 0.0086 µM | IC50 (guinea pig ileum): 0.01 µM | IC50 (Delta Receptor [1]; [7]): 0.0016 µM

C=C(C)CN1C[C@H](C)N(C(c2ccc(S(=O)(=O)N(CC)CC)cc2)c2cccc(O)c2)C[C@H]1C (stereo partly drawn) [Compound D]
agonist activity in the mouse vas deferens (mouse vas deferens; in words): potent agonist | analgesic activity in the tail flick test (delta-opioid receptor): provide analgesic activity | reversal of analgesia by injection of naloxone or delta-specific antagonists (ICI 174,864 or naltrindole) (delta-opioid receptor): reversible

C=CCN1C[C@H](C)N([C@H](c2ccc(C(=O)N(CC)CC)cc2)c2cccc(O)c2)C[C@H]1C [Example 6a, (+)-4-((αR)-α-((2S,5R)-4-Allyl-2,5-dimethyl-1-piperazinyl)-3-hydroxybenzyl)-N,N-diethylbenzamide]
IC50 (mouse vas deferens): 0.00017 µM | IC50 (guinea pig ileum): 0.084 µM | IC50 (Delta Receptor [1]; [7]): 0.0012 µM

CCN(CC)C(=O)c1ccc([C@H](c2cccc(O)c2)N2C[C@H](C)N(C)C[C@@H]2C)cc1 [Example 12, (+)-N,N-diethyl-4-(3-hydroxy-(αR)-α-((2S,5S)-2,4,5-trimethyl-1-piperazinyl)benzyl)benzamide]
IC50 (mouse vas deferens): 0.002 µM | IC50 (guinea pig ileum): > 10 µM | IC50 (Delta Receptor [1]; [7]): 0.0012 µM | IC50 (Mu Receptor [2]; [8]): 0.15 µM

C=CCN1C[C@H](C)N([C@H](c2cccc(O)c2)c2cccs2)C[C@H]1C [Example 67, (-)-3-((R)-((2S,5R)-4-Allyl-2,5-dimethyl-1-piperazinyl)(2-thienyl)methyl)phenol]
IC50 (mouse vas deferens; read-out: Mouse Vas Deferens ED50, electrically stimulated, 37° C., mean of (n) experiments): 0.02 µM | IC50 (Delta Receptor [1]; read-out: Delta Receptor IC50, 125I-[D-Ala2,D-Leu5]enkephalin 0.24 nM with mu-agonist morphiceptin analog, 24° C., 60 min, mean of (n) experiments): 0.027 µM | IC50 (Mu Receptor [2]; read-out: Mu Receptor IC50, 125I-[D-Ala2,N-MePhe4,Met(O)ol5]enkephalin 0.1 nM, 24° C., 60 min, mean of (n) experiments): 0.0003 µM

C=CCN1C[C@H](C)N([C@@H](c2cccc(O)c2)c2cccc(C(=O)N(CC)CC)c2)C[C@H]1C [Example 85, (+)-3-((αR)-α-((2S,5R)-4-Allyl-2,5-dimethyl-1-piperazinyl)-3-hydroxybenzyl)-N,N-diethylbenzamide]
IC50 (mouse vas deferens): 0.0073 µM | IC50 (guinea pig ileum): 0.018 µM | IC50 (Delta Receptor [1]; [7]): 0.0019 µM | mu receptor agonist activity (mu receptor [4]; listed as Compound C): mixed mu/delta opioid agonist; also recorded: agonism at both mu and delta opioid receptors | delta receptor agonist activity (delta receptor [3]; listed as Compound C): mixed mu/delta opioid agonist; also recorded: agonism at both mu and delta opioid receptors | analgesic potency compared to morphine [6]: analgesic potency comparable to mu-analgesic morphine | muscle rigidity and respiratory depression compared to morphine [6]: much reduced extent of muscle rigidity and respiratory depression | proconvulsant activity [6]: free of proconvulsant activity
